Experimental data: PubChem BioAssay (NCI)
Several values for one entry are separate records, joined by “and”; a condition that tells them apart may be missing. Equal values may be shown once.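 Five compound concentrations were applied to cells in 96-well plates for 48 hours; endpoints were derived by simple linear interpolation of the resulting dose-response curve. At the GI50, growth is halved. The concentration for full growth arrest is given as TGI.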

Columns and labels:
Test in all cases: growth of human tumour cells (NCI), 48 h
BT-549 breast = test system: BT-549 breast
UACC-62 melanoma = test system: UACC-62 melanoma
SF-268 CNS = test system: SF-268 CNS
HL-60(TB) leukemia = test system: HL-60(TB) leukemia
SF-539 CNS = test system: SF-539 CNS
CCRF-CEM leukemia = test system: CCRF-CEM leukemia
LOX IMVI melanoma = test system: LOX IMVI melanoma
MOLT-4 leukemia = test system: MOLT-4 leukemia
SF-295 CNS = test system: SF-295 CNS
MDA-MB-435 = test system: MDA-MB-435

| SMILES | GI50 (BT-549 breast) [µM] | TGI (BT-549 breast) [µM] | GI50 (UACC-62 melanoma) [µM] | TGI (UACC-62 melanoma) [µM] | GI50 (SF-268 CNS) [µM] | TGI (SF-268 CNS) [µM] | GI50 (HL-60(TB) leukemia) [µM] | TGI (HL-60(TB) leukemia) [µM] | GI50 (SF-539 CNS) [µM] | TGI (SF-539 CNS) | GI50 (CCRF-CEM leukemia) [µM] | TGI (CCRF-CEM leukemia) [µM] | GI50 (LOX IMVI melanoma) [µM] | TGI (LOX IMVI melanoma) [µM] | GI50 (MOLT-4 leukemia) [µM] | TGI (MOLT-4 leukemia) | GI50 (SF-295 CNS) [µM] | TGI (SF-295 CNS) [µM] | TGI (MDA-MB-435) [µM] | GI50 (MDA-MB-435) [µM] |
| --- | --- | --- | --- | --- | --- | --- | --- | --- | --- | --- | --- | --- | --- | --- | --- | --- | --- | --- | --- | --- |
| O=C1CC(c2ccc3c(c2)OCO3)Nc2cc3c(cc21)OCO3 (stereo not drawn) | 3.24 | > 100 | 0.673 | > 100 | 0.83 | > 100 | 0.252 | 0.637 | 0.301 | 1.2 µM | 0.363 | > 100 | 0.467 | 15.3 | 0.56 | > 100 µM | 0.348 | 6.81 |  |  |
| Cc1ccc(NC(=O)c2cc3ccccc3c(N=Nc3ccccc3O)c2O)c(C)c1 |  |  |  |  |  | 10.5 |  | 4.09 |  |  |  | 4.75 |  |  |  | 10.1 µM |  | 10.5 |  |  |
| O=C1C=C[C@@]23C[C@@H](Nc4c(O)c5c6c(c42)=NCCC=6C=N5)SC3=C1 |  |  | 1.64 | 3.31 | 3.04 | 10.1 |  | 5.61 | 3.08 | 9.58 µM |  | > 27 | 1.82 | 3.78 |  |  | 6.68 | 19.3 | 2.98 |  |
| O=c1c2cccc3cccc(c4oc5c6cccc7cccc(c(=O)c5c14)c76)c32 |  |  |  | 17.6 |  | 19.6 |  | 20.7 |  | 31.5 µM |  | 22.1 |  | 17.2 |  | 21.5 µM |  | > 31.6 |  |  |
| CC1=C(C(=O)Nc2cccc(Cl)c2)C(c2ccc([N+](=O)[O-])cc2)C(C(=O)Nc2cccc(Cl)c2)=C(C)N1 |  |  |  | 37.2 |  | > 100 |  | 47.4 |  | > 100 µM |  | > 100 |  | 28.8 |  | 56.2 µM |  | 58.4 |  |  |
| CCCCCCCCC(=O)N(C)C1C2CN3CCC(O2)C13 (stereo not drawn) |  |  |  | > 100 |  | > 100 |  | > 100 |  | > 100 µM |  | > 100 |  | > 100 |  | > 100 µM |  | > 100 |  |  |
| C/C([O-])=C1\Cc2ccccc2C1=O.C/C([O-])=C1\Cc2ccccc2C1=O.CC[O-].CC[O-].[Ti+4] |  |  | 12.4 | 31.6 | 17.1 | 47.3 | 13.1 | 50.8 | 13.6 | 33.1 µM | 13.9 | > 70.2 | 13 | 32 | 16.5 | > 46.4 µM | 14.5 | 32 | 43 | 17.6 |
| O=c1c2cc(Br)ccc2nc(-c2ccccc2Cl)n1NCC1(O)OCC(O)C(O)C1O (stereo not drawn) |  |  |  | > 100 |  | > 100 |  | > 100 |  |  |  | > 100 |  | > 100 |  | > 100 µM |  | > 100 |  |  |
| Fc1cccc2cc3ccc4cccc5ccc(c12)c3c45 |  |  |  | > 100 |  | > 100 |  | > 100 |  | > 100 µM |  | > 100 |  | > 100 |  | > 100 µM |  | > 100 |  |  |
| O=c1c(Sc2c(O)c3ccccc3c3ccccc3c2=O)c(O)c2ccccc2c2ccccc12 |  |  |  | > 100 |  | 99 |  | 41.8 |  | > 100 µM |  | 56.6 |  | 66.5 |  | 73.8 µM |  | > 100 |  |  |
| NC(=NC1CCCCCCC1)c1ccc(N2CCN(c3ccc(C(N)=NC4CCCCCCC4)cc3)CC2)cc1 |  |  | 12.6 | 28.3 | 16.7 | 42.7 | 16 | > 100 |  |  | 89.8 | > 100 | > 100 | > 100 | 47.8 | > 100 µM | 2.04 | 6.09 | 17.9 | 5.25 |
| COC(=O)C1C2C=CC(C2)C1(C(=O)OC)S(=O)CC12CCC(CC1O)C2(C)C (stereo not drawn) |  |  |  | > 100 |  | > 100 |  | > 100 |  | > 100 µM |  | > 100 |  | 40 |  | > 100 µM |  | > 100 |  |  |
| CC(=O)Nc1ccc(/C=N\N2C(=O)c3ccccc3C2=O)cc1 |  |  |  | > 100 |  | > 100 |  | > 100 |  | > 100 µM |  | > 100 |  | > 100 |  | > 100 µM |  | > 100 |  |  |
| NNC(=O)CCC(=O)Nc1cc(Cl)c(Cl)cc1Cl |  |  |  | > 100 |  | > 100 |  | > 100 |  | > 100 µM |  | > 100 |  | > 100 |  | > 100 µM |  | > 100 |  |  |
| C=C1C(=O)OC2C1CC[C@H](C)C13OC(=O)CC1[C@@]23C (stereo partly drawn) |  |  |  | > 100 |  | > 100 |  | > 100 |  | > 100 µM |  | > 100 |  |  |  | > 100 µM |  | > 100 |  |  |
| CCOC(=O)C1=C(NNC(=O)Cc2ccccc2)CSC1=Nc1ccccc1 |  |  |  | > 100 |  | > 100 |  | > 100 |  | > 100 µM |  | > 100 |  | > 100 |  | > 100 µM |  | > 100 |  |  |
| CCC(CC)n1cc(C(=O)NC(=O)NCCCCCOC(=O)CCCCCCCCCCC(=O)OCCCCCNC(=O)NC(=O)c2cn(C(CC)CC)c(=O)[nH]c2=O)c(=O)[nH]c1=O |  |  |  | > 100 |  | > 100 |  | > 100 |  | > 100 µM |  | > 100 |  | > 100 |  | > 100 µM |  | > 100 |  |  |
| Cc1cccc(NC(=O)c2cc3cc(N=Nc4ccccc4Cl)ccc3oc2=O)c1 |  |  |  | 42.5 |  | 84.4 |  | > 100 |  | 94.9 µM |  | > 100 |  | 27.4 |  | > 100 µM |  | > 100 |  |  |
| Cc1ccc(/C=C2/SC(Nc3nc(-c4nc(NC5=NC(=O)/C(=C\c6ccc(C)cc6)S5)sc4C)c(C)s3)=NC2=O)cc1 | 1.21 | 31.9 | 0.0759 | 1.71 | 2.51 | > 50 | 0.368 | > 50 | 0.379 | 1.84 µM | 2.44 | > 50 | 0.287 | 12.2 | > 19.7 | > 50 µM |  | 0.874 |  |  |
| CC(C)(O)C1CCC(Nc2ccc3ncc(-c4cccc(C(F)(F)F)c4)n3n2)CC1 (stereo not drawn) |  |  | 1.97 | 8.83 | 3.79 | 18.2 |  |  | 1.77 | 11.2 µM | 0.946 | 7.89 | 1.56 | 4.23 | 1.8 | 7.02 µM | 1.66 | 4.67 | > 100 | 2.06 |
| N#C/C(=C1\NN=C(N)C(c2ccc(Cl)cc2)=C1O)c1ccc(Cl)cc1 |  |  |  | > 100 |  | > 100 |  | > 100 |  | > 100 µM |  | > 100 |  | > 100 |  | > 100 µM |  | > 100 |  |  |
| O=c1[nH]nc2ccccc2c1Cl |  |  |  | 25.6 |  | 41.9 |  |  |  | 29.9 µM |  | 34.9 |  | 37.5 |  | 36.8 µM |  | 46.9 |  |  |
| Nc1ccn(CCO)c(=O)n1 |  |  |  | > 100 |  | > 100 |  | > 100 |  | > 100 µM |  | > 100 |  | > 100 |  |  |  | > 100 |  |  |
| CC1CC(c2cccc3c2OCO3)=Nc2ccccc2S1 (stereo not drawn) |  |  |  | > 100 |  | > 100 |  | > 100 |  | > 100 µM |  | > 100 |  | > 100 |  | > 100 µM |  | > 100 |  |  |
| O=C1OC(CC(=O)c2ccc(Cl)cc2Cl)C(Cl)=C1Cl (stereo not drawn) |  |  |  | 40 |  | 62.7 |  | > 75.6 |  | 44.9 µM |  | > 72.7 |  | 57.9 |  | 66.7 µM |  | > 100 |  |  |
| CC1CC2C(=O)N(c3ccccc3)C(=O)C2c2c1c1ccccc1n2Cc1ccccc1 (stereo not drawn) |  |  |  | > 100 |  | > 100 |  | > 100 |  | > 100 µM |  | > 100 |  | > 100 |  | > 100 µM |  | > 100 |  |  |
| CC(CN1CCN(C)CC1)CN1c2ccccc2Sc2ccc(C(F)(F)F)cc21 (stereo not drawn) |  |  | 2.09 | 4.18 | 3.1 | 9.29 | 1.92 | 4.1 | 1.67 | 3.59 µM | 2.6 | 6.74 | 1.68 | 3.25 | 2.05 | 4.77 µM | 1.97 | 4.31 | 3.6 | 1.8 |
| Cc1nn(-c2ccccc2)c2c1CC(=O)Nc1ccccc1-2 |  |  | 0.158 | 73.4 | 0.623 | > 100 | 0.0203 |  | 0.173 | 7.8 µM and 0.855 µM | 0.112 |  | 0.431 | > 100 | 0.0843 | 9.19 µM and 1.99 µM |  | 3.06 | 0.602 |  |
| OCC(O)C(OC1OC(CO)C(O)C(O)C1O)c1nn(-c2ccccc2)c2nc3cc(Cl)c(Cl)cc3cc12 (stereo not drawn) |  |  |  | > 100 |  | > 100 |  |  |  | > 100 µM |  | > 100 |  | > 100 |  | > 100 µM |  | > 100 |  |  |
| C[C@H]1[C@H](C)CC[C@]2(C(=O)N3CCN(C)CC3)CC[C@]3(C)C(=CC[C@@H]4[C@@]5(C)C/C(=C/c6cccnc6)C(=O)C(C)(C)[C@@H]5CC[C@]43C)[C@H]12 |  |  | 1.15 | 2.52 | 1.47 | 3.05 | 0.487 | 1.86 | 1.44 | 2.78 µM | 2 | 5.64 | 1.41 | 2.88 | 1.92 | 5.75 µM | 1.6 | 3.01 | 2.49 | 1.13 |
